In US10189841B2, “Purinones as ubiquitin-specific protease 1 inhibitors” (Forma Therapeutics, Inc., priority 2015, dated 2019):

Molecular target: USP1 (construct USP1 (I-785, GG670, 671AA)/UAF1 (I-677)-Flag) (Homo sapiens (Human), UniProt O94782, G670A/G671A)
Assay: Ubiquitin-Rhodamine 110 assay for USP1 activity
Type: biochemical
Conditions: USP1/UAF1 25 pM, Ub-Rh110 25 nM, 30 min preincubation
Procedure, shortened: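 Two formats with the USP1/UAF1 complex and 25 nM ubiquitin-rhodamine 110 in pH 8.0 Tris buffer with calcium, glutathione and detergent. Single-point screening used 10 µM, 100 pM enzyme and 45 min. Inhibition was set against no-enzyme and DMSO wells.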

Sequence of USP1 (construct USP1 (I-785, GG670, 671AA)/UAF1 (I-677)-Flag) (O94782 whole entry G670A/G671A): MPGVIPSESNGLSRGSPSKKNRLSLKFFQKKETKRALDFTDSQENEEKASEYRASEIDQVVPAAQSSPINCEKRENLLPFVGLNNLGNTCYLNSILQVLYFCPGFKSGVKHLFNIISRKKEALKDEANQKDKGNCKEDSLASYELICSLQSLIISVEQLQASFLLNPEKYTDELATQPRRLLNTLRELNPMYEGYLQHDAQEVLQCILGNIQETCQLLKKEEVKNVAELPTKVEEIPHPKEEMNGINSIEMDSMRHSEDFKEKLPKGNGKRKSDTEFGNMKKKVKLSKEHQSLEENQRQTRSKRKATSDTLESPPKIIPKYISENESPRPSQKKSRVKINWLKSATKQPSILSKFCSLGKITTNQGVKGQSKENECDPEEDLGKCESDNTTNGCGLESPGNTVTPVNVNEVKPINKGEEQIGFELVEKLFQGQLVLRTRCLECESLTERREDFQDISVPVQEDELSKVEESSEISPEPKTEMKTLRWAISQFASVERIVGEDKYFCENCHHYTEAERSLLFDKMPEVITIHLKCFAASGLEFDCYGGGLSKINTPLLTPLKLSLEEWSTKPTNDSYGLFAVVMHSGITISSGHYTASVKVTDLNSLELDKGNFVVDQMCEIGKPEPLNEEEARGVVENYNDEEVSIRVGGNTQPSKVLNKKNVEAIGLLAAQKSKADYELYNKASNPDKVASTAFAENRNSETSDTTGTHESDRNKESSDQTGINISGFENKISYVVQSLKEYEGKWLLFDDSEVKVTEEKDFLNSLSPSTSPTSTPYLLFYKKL
Sequence of USP1 (construct USP1 (I-785, GG670, 671AA)/UAF1 (I-677)-Flag) (Q8TAF3 whole entry partner): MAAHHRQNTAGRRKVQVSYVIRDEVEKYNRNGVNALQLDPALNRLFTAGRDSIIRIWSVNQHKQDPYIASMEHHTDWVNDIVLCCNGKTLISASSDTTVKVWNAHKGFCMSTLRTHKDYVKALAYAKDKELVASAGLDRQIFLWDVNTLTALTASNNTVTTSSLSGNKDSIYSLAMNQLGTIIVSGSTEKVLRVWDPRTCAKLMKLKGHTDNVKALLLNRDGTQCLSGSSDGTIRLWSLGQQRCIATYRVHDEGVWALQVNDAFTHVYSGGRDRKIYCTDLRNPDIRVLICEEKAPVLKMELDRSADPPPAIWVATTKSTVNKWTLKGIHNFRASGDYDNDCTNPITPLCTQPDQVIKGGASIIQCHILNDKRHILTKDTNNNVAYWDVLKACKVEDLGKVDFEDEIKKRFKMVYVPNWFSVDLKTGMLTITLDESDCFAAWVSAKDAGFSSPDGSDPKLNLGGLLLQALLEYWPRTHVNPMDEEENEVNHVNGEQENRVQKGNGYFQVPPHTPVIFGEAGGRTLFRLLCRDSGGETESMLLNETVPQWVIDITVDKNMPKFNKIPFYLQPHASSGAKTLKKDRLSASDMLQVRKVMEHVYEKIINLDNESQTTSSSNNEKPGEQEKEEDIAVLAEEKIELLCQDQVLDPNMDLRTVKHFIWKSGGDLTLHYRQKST

Structure (SMILES)	IC50
CC(C)c1ccccc1-c1ncc2c(n1)n(Cc1ccc(OCc3ccccn3)cc1)c(=O)n2C [Compound I-231, 2-(2-isopropylphenyl)-7-methyl-9-(4-(pyridin-2-ylmethoxy)benzyl)-7,9-dihydro-8H-purin-8-one]	< 50 nM
CC(C)c1ccccc1-c1ncc2c(n1)n(Cc1ccc(OCc3cncn3C)cc1)c(=O)n2C [Compound I-232, 2-(2-isopropylphenyl)-7-methyl-9-(4-((1-methyl-1H-imidazol-5-yl)methoxy)benzyl)-7,9-dihydro-8H-purin-8-one]	200 to 2000 nM
CC(C)c1ccccc1-c1ncc2c(n1)n(Cc1ccc(OCCN(C)C)cc1)c(=O)n2C [Compound I-233, 9-(4-(2-(dimethylamino)ethoxy)benzyl)-2-(2-isopropylphenyl)-7-methyl-7,9-dihydro-8H-purin-8-one]	50 to 200 nM
CC(C)c1ccccc1-c1ncc2c(n1)n(Cc1ccc(OCCCN(C)C)cc1)c(=O)n2C [Compound I-234, 9-(4-(3-(dimethylamino)propoxy)benzyl)-2-(2-isopropylphenyl)-7-methyl-7,9-dihydro-8H-purin-8-one]	> 2000 nM
Cc1cc(COc2ccc(Cn3c(=O)n(C)c4cnc(-c5ccccc5C(C)C)nc43)cc2)no1 [Compound I-235, 2-(2-isopropylphenyl)-7-methyl-9-(4-((5-methylisoxazol-3-yl)methoxy)benzyl)-7,9-dihydro-8H-purin-8-one]	200 to 2000 nM
CCOCCOc1ccc(Cn2c(=O)n(C)c3cnc(-c4ccccc4C(C)C)nc32)cc1 [Compound I-236, 9-(4-(2-ethoxyethoxy)benzyl)-2-(2-isopropylphenyl)-7-methyl-7,9-dihydro-8H-purin-8-one]	< 50 nM
CC(C)c1ccccc1-c1ncc2c(n1)n(Cc1ccc(OC3CCC3)cc1)c(=O)n2C [Compound I-237, 9-(4-cyclobutoxybenzyl)-2-(2-isopropylphenyl)-7-methyl-7,9-dihydro-8H-purin-8-one]	50 to 200 nM
CC(C)c1ccccc1-c1ncc2c(n1)n(Cc1ccc(OC3CCOCC3)cc1)c(=O)n2C [Compound I-238, 2-(2-isopropylphenyl)-7-methyl-9-(4-((tetrahydro-2H-pyran-4-yl)oxy)benzyl)-7,9-dihydro-8H-purin-8-one]	200 to 2000 nM
CC(C)c1ccccc1-c1ncc2c(n1)n(Cc1cccc(OCC3CC3)c1)c(=O)n2C [Compound I-239, 9-(3-(cyclopropylmethoxy)benzyl)-2-(2-isopropylphenyl)-7-methyl-7,9-dihydro-8H-purin-8-one]	> 2000 nM
CC(C)c1ccccc1-c1ncc2c(n1)n(Cc1cccc(OCC3CCOC3)c1)c(=O)n2C (stereo not shown) [Compound I-240, 2-(2-isopropylphenyl)-7-methyl-9-(3-((tetrahydrofuran-3-yl)methoxy)benzyl)-7,9-dihydro-8H-purin-8-one]	200 to 2000 nM
CC(C)c1ccccc1-c1ncc2c(n1)n(Cc1cccc(OCC3CCCN(C)C3)c1)c(=O)n2C (stereo not shown) [Compound I-241, 2-(2-isopropylphenyl)-7-methyl-9-(3-((1-methylpiperidin-3-yl)methoxy)benzyl)-7,9-dihydro-8H-purin-8-one]	200 to 2000 nM
CC(C)c1ccccc1-c1ncc2c(n1)n(Cc1cccc(OCc3ccccn3)c1)c(=O)n2C [Compound I-242, 2-(2-isopropylphenyl)-7-methyl-9-(3-(pyridin-2-ylmethoxy)benzyl)-7,9-dihydro-8H-purin-8-one]	> 2000 nM
CC(C)c1ccccc1-c1ncc2c(n1)n(Cc1cccc(OCc3cncn3C)c1)c(=O)n2C [Compound I-243, 2-(2-isopropylphenyl)-7-methyl-9-(3-((1-methyl-1H-imidazol-5-yl)methoxy)benzyl)-7,9-dihydro-8H-purin-8-one]	200 to 2000 nM
CC(C)c1ccccc1-c1ncc2c(n1)n(Cc1cccc(OCCN(C)C)c1)c(=O)n2C [Compound I-244, 9-(3-(2-(dimethylamino)ethoxy)benzyl)-2-(2-isopropylphenyl)-7-methyl-7,9-dihydro-8H-purin-8-one]	> 2000 nM
CC(C)c1ccccc1-c1ncc2c(n1)n(Cc1cccc(OCCCN(C)C)c1)c(=O)n2C [Compound I-245, 9-(3-(3-(dimethylamino)propoxy)benzyl)-2-(2-isopropylphenyl)-7-methyl-7,9-dihydro-8H-purin-8-one]	> 2000 nM
CC(C)c1ccccc1-c1ncc2c(n1)n(Cc1cccc(OC3CCC3)c1)c(=O)n2C [Compound I-246, 9-(3-cyclobutoxybenzyl)-2-(2-isopropylphenyl)-7-methyl-7,9-dihydro-8H-purin-8-one]	> 2000 nM
CC(C)c1ccccc1-c1ncc2[nH]c(=O)n(Cc3ccc(-c4cnccn4)cc3)c2n1 [Compound I-247, 2-(2-isopropylphenyl)-9-(4-(pyrazin-2-yl)benzyl)-7,9-dihydro-8H-purin-8-one]	50 to 200 nM

Structure (SMILES)	IC50
CC(C)c1ccccc1-c1ncc2[nH]c(=O)n(Cc3ccc(-c4cccc(CCN(C)C)c4)cc3)c2n1 [Compound I-248, 9-((3′-(2-(dimethylamino)ethyl)-[1,1′-biphenyl]-4-yl)methyl)-2-(2-isopropylphenyl)-7,9-dihydro-8H-purin-8-one]	200 to 2000 nM
CC(C)c1ccccc1-c1ncc2[nH]c(=O)n(Cc3ccc(-c4ccc(CCN(C)C)cc4)cc3)c2n1 [Compound I-249, 9-((4′-(2-(dimethylamino)ethyl)-[1,1′-biphenyl]-4-yl)methyl)-2-(2-isopropylphenyl)-7,9-dihydro-8H-purin-8-one]	200 to 2000 nM
CC(C)c1ccccc1-c1ncc2[nH]c(=O)n(Cc3ccc(-c4cc(N5CCOCC5)ncn4)cc3)c2n1 [Compound I-250, 2-(2-isopropylphenyl)-9-(4-(6-morpholinopyrimidin-4-yl)benzyl)-7,9-dihydro-8H-purin-8-one]	50 to 200 nM
CC(C)c1ccccc1-c1ncc2[nH]c(=O)n(Cc3ccc(-c4cncn4C)cc3)c2n1 [Compound I-251, 2-(2-isopropylphenyl)-9-(4-(1-methyl-1H-imidazol-5-yl)benzyl)-7,9-dihydro-8H-purin-8-one]	200 to 2000 nM
Cc1c(-c2ccc(Cn3c(=O)[nH]c4cnc(-c5ccccc5C(C)C)nc43)cc2)cnn1C [Compound I-252, 9-(4-(1,5-dimethyl-1H-pyrazol-4-yl)benzyl)-2-(2-isopropylphenyl)-7,9-dihydro-8H-purin-8-one]	50 to 200 nM
Cc1noc(C)c1-c1ccc(Cn2c(=O)[nH]c3cnc(-c4ccccc4C(C)C)nc32)cc1 [Compound I-253, 9-(4-(3,5-dimethylisoxazol-4-yl)benzyl)-2-(2-isopropylphenyl)-7,9-dihydro-8H-purin-8-one]	200 to 2000 nM
CC(C)c1ccccc1-c1ncc2[nH]c(=O)n(Cc3ccc(-c4cnn(C)c4CC(=O)O)cc3)c2n1 [Compound I-254, 2-(4-(4-((2-(2-isopropylphenyl)-8-oxo-7,8-dihydro-9H-purin-9-yl)methyl)phenyl)-1-methyl-1H-pyrazol-5-yl)acetic acid]	> 2000 nM
CC(C)c1ccccc1-c1ncc2[nH]c(=O)n(Cc3ccc(-c4ncccn4)cc3)c2n1 [Compound I-255, 2-(2-isopropylphenyl)-9-(4-(pyrimidin-2-yl)benzyl)-7,9-dihydro-8H-purin-8-one]	50 to 200 nM
CC(C)c1ccccc1-c1ncc2[nH]c(=O)n(Cc3ccc(-c4ccnn4C)cc3)c2n1 [Compound I-256, 2-(2-isopropylphenyl)-9-(4-(1-methyl-1H-pyrazol-5-yl)benzyl)-7,9-dihydro-8H-purin-8-one]	< 50 nM
CC(C)c1ccccc1-c1ncc2c(n1)n(Cc1ccc(-c3nccn3C)cc1)c(=O)n2C [Compound I-257, 2-(2-isopropylphenyl)-7-methyl-9-(4-(1-methyl-1H-imidazol-2-yl)benzyl)-7,9-dihydro-8H-purin-8-one]	< 50 nM
Cc1cn(C)c(-c2ccc(Cn3c(=O)n(C)c4cnc(-c5ccccc5C(C)C)nc43)cc2)n1 [Compound I-258, 9-(4-(1,4-dimethyl-1H-imidazol-2-yl)benzyl)-2-(2-isopropylphenyl)-7-methyl-7,9-dihydro-8H-purin-8-one]	< 50 nM
CC(C)c1ccccc1-c1ncc2c(n1)n(Cc1ccc(-c3ccccc3OCCN(C)C)cc1)c(=O)n2C [Compound I-259, 9-((2′-(2-(dimethylamino)ethoxy)-[1,1′-biphenyl]-4-yl)methyl)-2-(2-isopropylphenyl)-7-methyl-7,9-dihydro-8H-purin-8-one]	< 50 nM
CC(C)c1ccccc1-c1ncc2c(n1)n(Cc1ccc(-c3cccc(OCCN(C)C)c3)cc1)c(=O)n2C [Compound I-260, 9-((3′-(2-(dimethylamino)ethoxy)-[1,1′-biphenyl]-4-yl)methyl)-2-(2-isopropylphenyl)-7-methyl-7,9-dihydro-8H-purin-8-one]	50 to 200 nM
CC(C)c1ccccc1-c1ncc2c(n1)n(Cc1ccc(-c3ccc(OCCN(C)C)cc3)cc1)c(=O)n2C [Compound I-261, 9-((4′-(2-(dimethylamino)ethoxy)-[1,1′-biphenyl]-4-yl)methyl)-2-(2-isopropylphenyl)-7-methyl-7,9-dihydro-8H-purin-8-one]	50 to 200 nM
CC(C)c1ccccc1-c1ncc2c(n1)n(Cc1ccc(-c3ccc(CCN(C)C)cc3)cc1)c(=O)n2C [Compound I-262, 9-((4′-(2-(dimethylamino)ethyl)-[1,1′-biphenyl]-4-yl)methyl)-2-(2-isopropylphenyl)-7-methyl-7,9-dihydro-8H-purin-8-one]	50 to 200 nM
CC(C)c1ccccc1-c1ncc2c(n1)n(Cc1ccc(-c3cc(N4CCOCC4)ncn3)cc1)c(=O)n2C [Compound I-263, 2-(2-isopropylphenyl)-7-methyl-9-(4-(6-morpholinopyrimidin-4-yl)benzyl)-7,9-dihydro-8H-purin-8-one]	200 to 2000 nM
CC(C)c1ccccc1-c1ncc2c(n1)n(Cc1ccc(-c3cncn3C)cc1)c(=O)n2C [Compound I-264, 2-(2-isopropylphenyl)-7-methyl-9-(4-(1-methyl-1H-imidazol-5-yl)benzyl)-7,9-dihydro-8H-purin-8-one]	50 to 200 nM
